Assays:
[1] = 101.33 kPa, Liquid, Vibrating tube method
[2] = excess molar enthalpy (molar enthalpy of mixing); xn = mol fraction of the nth substance listed; conditions: 100 kPa, Liquid, isothermal titration calorimetry

CCCCCCOCC [1-ethoxyhexane]
[1]
Conditions | mass density [kg/m3]
288.15 K | 775.8
293.15 K | 771.47
298.15 K | 767.15
303.15 K | 762.8
308.15 K | 758.45
313.15 K | 754.06
318.15 K | 749.66
323.15 K | 745.27

CCCCCCCOC [1-methoxyheptane]
[1]
Conditions | mass density [kg/m3]
288.15 K | 783.89
293.15 K | 779.71
298.15 K | 775.52
303.15 K | 771.31
308.15 K | 767.09
313.15 K | 762.85
318.15 K | 758.57
323.15 K | 754.3

CCCCCOCCC [1-propoxypentane]
[1]
Conditions | mass density [kg/m3]
288.15 K | 773.45
293.15 K | 769.12
298.15 K | 764.78
303.15 K | 760.4
308.15 K | 756.01
313.15 K | 751.6
318.15 K | 747.19
323.15 K | 742.73

CCCOCCC(C)C [3-methyl-1-propoxybutane]
[1]
Conditions | mass density [kg/m3]
288.15 K | 768.79
293.15 K | 764.43
298.15 K | 760.04
303.15 K | 755.62
308.15 K | 751.22
313.15 K | 746.78
318.15 K | 742.31
323.15 K | 737.84

CCCOCCC(C)C [3-methyl-1-propoxybutane] + CC#N
[2]
Conditions | excess molar enthalpy [kcal/mol]
298.15 K, x2 = 0.0312 | 0.0349
298.15 K, x2 = 0.0606 | 0.0693
298.15 K, x2 = 0.0882 | 0.0976
298.15 K, x2 = 0.1142 | 0.122
298.15 K, x2 = 0.1388 | 0.144
298.15 K, x2 = 0.1841 | 0.178
298.15 K, x2 = 0.2249 | 0.204
298.15 K, x2 = 0.2618 | 0.224
298.15 K, x2 = 0.3259 | 0.253
298.15 K, x2 = 0.3798 | 0.271
298.15 K, x2 = 0.4258 | 0.281
298.15 K, x2 = 0.4654 | 0.286
298.15 K, x2 = 0.5079 | 0.289
298.15 K, x2 = 0.5442 | 0.289
298.15 K, x2 = 0.5756 | 0.287
298.15 K, x2 = 0.6028 | 0.284
298.15 K, x2 = 0.6559 | 0.274
298.15 K, x2 = 0.6774 | 0.269
298.15 K, x2 = 0.6994 | 0.262
298.15 K, x2 = 0.7186 | 0.255
298.15 K, x2 = 0.7355 | 0.248
298.15 K, x2 = 0.7504 | 0.241
298.15 K, x2 = 0.7638 | 0.234
308.15 K, x2 = 0.0302 | 0.0413
308.15 K, x2 = 0.0586 | 0.0789
308.15 K, x2 = 0.0854 | 0.11
308.15 K, x2 = 0.1107 | 0.136
308.15 K, x2 = 0.1347 | 0.158
308.15 K, x2 = 0.1789 | 0.195
308.15 K, x2 = 0.2188 | 0.223
308.15 K, x2 = 0.2551 | 0.245
308.15 K, x2 = 0.2881 | 0.262
308.15 K, x2 = 0.3183 | 0.275
308.15 K, x2 = 0.3716 | 0.293
308.15 K, x2 = 0.4172 | 0.304
308.15 K, x2 = 0.4567 | 0.31
308.15 K, x2 = 0.4992 | 0.313
308.15 K, x2 = 0.5356 | 0.313
308.15 K, x2 = 0.567 | 0.311
308.15 K, x2 = 0.5944 | 0.307
308.15 K, x2 = 0.6231 | 0.302
308.15 K, x2 = 0.648 | 0.295
308.15 K, x2 = 0.6698 | 0.289
308.15 K, x2 = 0.692 | 0.281
308.15 K, x2 = 0.7115 | 0.274
308.15 K, x2 = 0.7146 | 0.269
308.15 K, x2 = 0.7286 | 0.266
308.15 K, x2 = 0.7356 | 0.26
308.15 K, x2 = 0.7438 | 0.259
308.15 K, x2 = 0.7574 | 0.252
308.15 K, x2 = 0.7579 | 0.249
308.15 K, x2 = 0.7816 | 0.236
308.15 K, x2 = 0.8068 | 0.219
308.15 K, x2 = 0.8337 | 0.2
308.15 K, x2 = 0.8507 | 0.186
308.15 K, x2 = 0.8684 | 0.17
308.15 K, x2 = 0.8869 | 0.151
308.15 K, x2 = 0.9061 | 0.13
308.15 K, x2 = 0.9263 | 0.107
308.15 K, x2 = 0.9401 | 0.0886
308.15 K, x2 = 0.9544 | 0.0689
308.15 K, x2 = 0.9691 | 0.0474
308.15 K, x2 = 0.9843 | 0.0234

CC#N [acetonitrile]
[1]
Conditions | mass density [kg/m3]
298.15 K | 776.51
303.15 K | 771.06
308.15 K | 765.59
313.15 K | 760.1
318.15 K | 754.56
323.15 K | 748.99

CCCCOCC(C)C [butyl isobutyl ether]
[1]
Conditions | mass density [kg/m3]
288.15 K | 764.07
293.15 K | 759.72
298.15 K | 755.31
303.15 K | 750.87
308.15 K | 746.45
313.15 K | 741.98
318.15 K | 737.58
323.15 K | 732.99

CCCCOCC(C)C [butyl isobutyl ether] + CC#N
[2], 298.15 K
Conditions | excess molar enthalpy [kcal/mol]
x2 = 0.0314 | 0.0454
x2 = 0.061 | 0.0839
x2 = 0.0887 | 0.116
x2 = 0.1149 | 0.143
x2 = 0.1396 | 0.167
x2 = 0.1851 | 0.204
x2 = 0.2261 | 0.233
x2 = 0.2631 | 0.255
x2 = 0.2967 | 0.273
x2 = 0.3275 | 0.286
x2 = 0.3815 | 0.302
x2 = 0.4274 | 0.31
x2 = 0.4671 | 0.315
x2 = 0.5097 | 0.317
x2 = 0.5459 | 0.316
x2 = 0.5772 | 0.311
x2 = 0.6045 | 0.308
x2 = 0.6329 | 0.301
x2 = 0.6575 | 0.295
x2 = 0.6789 | 0.289
x2 = 0.7009 | 0.282
x2 = 0.7183 | 0.275
x2 = 0.72 | 0.275
x2 = 0.7368 | 0.268
x2 = 0.7392 | 0.267
x2 = 0.7517 | 0.261
x2 = 0.7613 | 0.256
x2 = 0.765 | 0.254
x2 = 0.7847 | 0.242
x2 = 0.8097 | 0.226
x2 = 0.8362 | 0.207
x2 = 0.853 | 0.193
x2 = 0.8705 | 0.177
x2 = 0.8887 | 0.158
x2 = 0.9077 | 0.137
x2 = 0.9275 | 0.112
x2 = 0.9411 | 0.0935
x2 = 0.9552 | 0.073
x2 = 0.9697 | 0.0503
x2 = 0.9846 | 0.0253
